Assay results taken from PMC10895678 (Journal of Medicinal Chemistry, 2024).
Converted amounts (≈) assume the structure as drawn. “And” between values parts separate entries of the source, which are not always exact repeats. Equal values may be shown once. Read-outs that look alike come from different tables or passages of the source.

Assays:
BCG pTIC6-fbpC = format: cell-based, Mycobacterium bovis BCG
[1] = Mouse PK, combined (cassette) dosing of BGAz-001–005; format: in vivo, KM mice; design: AUMC(0-t) / VRT(0-t) / λz: unit not given here; conditions: for AUC(0-t): read-out: AUC(0-t); for MRT last: read-out: MRT(0-t); for MRT inf: read-out: MRT(0-∞); for Vd/F: read-out: Vz/F
Excerpt: Methods for combined single dosing (BGAz001–005) and dosing of single compounds multiple times (BGAz004 and BGAz005) are described in detail in the Supporting Information (PK Data).
Report on PK Results of Combined Dosing with BGAz-001–005
1 Materials and instrument combined dosing
An MS2 Turnover type oscillator was purchased from IKA Work’s Guangzhou (China), and a 5415R ChromatographicanalyseswereconductedusinganAgilent1290InfinityIIhighperformanceliquidchromatography andAgilentTechnologies6470TripleQuadLC/MS.Propranolol(≥90%inpurity,internalstandard,IS)waspurchased fromtheSigmaChemicalCo.(China).Formicacid(HPLCgrade)andmethanol(HPLCgrade)werepurchasedfrom DIKMACo.(China).Allchemicalsandsolventswereanalyticalgrade.WaterwaspurifiedusingaMillipore(AK,USA) laboratoryultra-purewatersystem(0.2μmfilter).
KMmice,weighing25–35g(BeijingVitalRiverLaboratoryAnimalTechnologyCo.,Ltd.,China)wereutilisedforthe studies.The protocols were approved by the Animal Care and Use Committee, GIBH. Animals were maintained on standard animal chow and waterad libitum, in a climate-controlled room (23±1 °C 30–70% relative humidity, a minimumof tenexchangesof roomairperhouranda12hlight/darkcycle)foroneweekpriortoexperiments.
3 Pharmacokinetic studies
Compounds BGAz-001 ，BGAz-002 ，BGAz-003 ，BGAz-004 and BGAz-005 were dissolved mixed in a solution containing DMSO (2%),ethanol (4%), Cremophor EL (4%) and ddH2O (90%); Pharmacokinetic propertiesof KM (male) were determined following IV, PO and IP administration. Animals were randomly distributed into three experimentalgroups(n=4).ThePOgroupwasgivenmixedsolutionwith5mg/kgbygastricgavage.TheIVgroup was dosed with mixed solution 1mg/kg byinjection into the tail vein. The IP group was dosed with mixed solution 1mg/kg by intraperitoneal injection. After single administration, whole blood samples (100 μL) were obtained from the orbital venousplexus atthe followingtime pointsafter dosing:5, 15,30 minand 1,3, 5,8, 24hour (PO and IP groups) and at the following time points after dosing 2, 10, 30min and 1, 3, 5, 8,24 hour (IV group). Wholeblood samples were collected in heparinised tubes. The plasma fraction was immediately separated by centrifugation. The micewerehumanelyeuthanasiabycarbondioxide24hoursafterexperimentwithoutpain.
4 Plasma sample and brain sample analysis
4.1 Standard curve sample preparation
ThecompoundsweredissolvedinDMSO(2mg/mL)anddilutedwithtoseriesconcentration(methanol:H 2O,1:1,10 μL) and blank plasma (50 μL) were added to 1.5 mL tubes and vortexed for 3 min, then acetonitrile-containing internalstandard(150μL)wasaddedandvortexedforafurther5min,andsubsequentlyspuninacentrifugeat13000 […]
4.2 Plasma and preparation
Plasmasampleswerepreparedusingaproteinprecipitationmethod.Solution(10μL,methanolH 2O,1:1)andplasma samples(50μL)wereaddedto1.5mLtubesandvortexfor3min,thenacetonitrile-containinginternalstandard(150 μL)wasaddedandvortexfor5min,andsubsequentlyspuninacentrifugeat13000× gfor40minat4°C.
Aftercentrifugation,supernatant(100μL)wastransferto96wellplatesandanalysedbyLC-MS/MSusinganAgilent 1290InfinityIIHPLCandanAgilentTechnologies6470TripleQuadLC/MS.

M. bovis BCG = assay: microbe, parasite or virus in culture; format: cell-based, Mycobacterium bovis BCG
BCG pTIC6-fbpA = format: cell-based, Mycobacterium bovis BCG
BCG pTIC6-fbpB = format: cell-based, Mycobacterium bovis BCG
[2] = IP 1 mg/kg, cassette, mean of animals
[3] = IV 1 mg/kg, cassette, mean of animals
[4] = PO 5 mg/kg, cassette, mean of animals
[5] = male, KM, mouse, plasma, IP 1 mg/kg, cassette
[6] = male, KM, mouse, plasma, IP 1 mg/kg, cassette, mean of animals
[7] = male, KM, mouse, plasma, IV 1 mg/kg, cassette
[8] = male, KM, mouse, plasma, IV 1 mg/kg, cassette, mean of animals
[9] = male, KM, mouse, plasma, PO 5 mg/kg, cassette
[10] = male, KM, mouse, plasma, PO 5 mg/kg, cassette, mean of animals

Question: What does the source list for `Brc1cc(Br)cc(C2CC(CN3CCCC3)N2Cc2ccccc2Br)c1` (stereo not drawn) [BGAz-004]?
Answer: BCG pTIC6-fbpC MIC (BCG pTIC6-fbpC): 34 µM; increase in MIC upon overexpression of FbpC (BCG pTIC6-fbpC): two-fold increase; AUMC(0-t) [1, 2]: 3591.68 **μg; AUMC(0-∞) [1, 2]: 7580.816 **μg; CLz/F [1, 2]: 1.737 L/kg; C_last [1, 2]: 7.173 µg; R_AUC(t/∞) [1, 2]: 82.475%; VRT(0-t) [1, 2]: 44.576 ^2; VRT(0-∞) [1, 2]: 210.175 ^2; λz [1, 2]: 0.071 1/; AUC(0-∞) ([1]; IP 1 mg/kg, cassette, summary table): 581.359 µg·h; AUMC(0-t) [1, 3]: 5267.479 **μg; AUMC(0-∞) [1, 3]: 9388.553 **μg; CLz/F [1, 3]: 1.659 L/kg; C_last [1, 3]: 6.542 µg; R_AUC(t/∞) [1, 3]: 90.625%; VRT(0-t) [1, 3]: 43.967 ^2; VRT(0-∞) [1, 3]: 134.645 ^2; Vz/F [1, 3]: 17.622 L/kg; λz [1, 3]: 0.091 1/; AUC(0-∞) ([1]; IV 1 mg/kg, cassette, summary table): 789.43 µg·h; BA ([1]; PO 5 mg/kg vs IV 1 mg/kg, cassette): 35.64%; AUMC(0-t) [1, 4]: 7719.114 **μg; AUMC(0-∞) [1, 4]: 23536.035 **μg; CLz/F [1, 4]: 3.927 L/kg; C_last [1, 4]: 32.311 µg; R_AUC(t/∞) [1, 4]: 62.325%; VRT(0-t) [1, 4]: 36.246 ^2; VRT(0-∞) [1, 4]: 301.909 ^2; λz [1, 4]: 0.069 1/; AUC(0-∞) ([1]; PO 5 mg/kg, cassette, summary table): 1406.796 µg·h; AUC(0-inf) ([1]; male, KM, mouse, plasma, ip, 1 mg/kg, IP 1 mg/kg, cassette, mean of animals, read-out: AUC(0-∞)): 581 ng·h/mL; Cmax ([1]; male, KM, mouse, plasma, ip, 1 mg/kg, IP 1 mg/kg, cassette, mean of animals, read-out: Cmax): 61 ng/mL; Tmax ([1]; male, KM, mouse, plasma, ip, 1 mg/kg, IP 1 mg/kg, cassette, mean of animals, read-out: Tmax): 0.271 h; Cmax ([1]; male, KM, mouse, plasma, ip, 1 mg/kg, IP 1 mg/kg, cassette, summary table, read-out: Cmax): 61 ng/mL; half-life ([1]; male, KM, mouse, plasma, ip, 1 mg/kg, IP 1 mg/kg, cassette, summary table, read-out: T1/2 (converted)): 9.82 h; Tmax ([1]; male, KM, mouse, plasma, ip, 1 mg/kg, IP 1 mg/kg, cassette, summary table, read-out: Tmax): 0.271 h; AUC(0-inf) ([1]; male, KM, mouse, plasma, iv, 1 mg/kg, IV 1 mg/kg, cassette, mean of animals, read-out: AUC(0-∞)): 789 ng·h/mL; Cmax ([1]; male, KM, mouse, plasma, iv, 1 mg/kg, IV 1 mg/kg, cassette, mean of animals, read-out: Cmax): 278 ng/mL; Tmax ([1]; male, KM, mouse, plasma, iv, 1 mg/kg, IV 1 mg/kg, cassette, mean of animals, read-out: Tmax): 0.033 h; Cmax ([1]; male, KM, mouse, plasma, iv, 1 mg/kg, IV 1 mg/kg, cassette, summary table, read-out: Cmax): 278 ng/mL; half-life ([1]; male, KM, mouse, plasma, iv, 1 mg/kg, IV 1 mg/kg, cassette, summary table, read-out: T1/2 (converted)): 8.29 h; Tmax ([1]; male, KM, mouse, plasma, iv, 1 mg/kg, IV 1 mg/kg, cassette, summary table, read-out: Tmax): 0.033 h; AUC(0-inf) ([1]; male, KM, mouse, plasma, po, 5 mg/kg, 5 mg/kg PO, cassette dosing, read-out: AUC0-inf): 1410 ng·h/mL; Cmax ([1]; male, KM, mouse, plasma, po, 5 mg/kg, 5 mg/kg PO, cassette dosing, read-out: Cmax (Mouse, P.O.)): 87.6 ng/mL; half-life ([1]; male, KM, mouse, plasma, po, 5 mg/kg, 5 mg/kg PO, cassette dosing, read-out: T1/2 (Mouse, P.O.) (converted)): 11.4 h; Tmax ([1]; male, KM, mouse, plasma, po, 5 mg/kg, 5 mg/kg PO, cassette dosing, read-out: Tmax (Mouse, P.O.)): 0.87 h; AUC(0-inf) ([1]; male, KM, mouse, plasma, po, 5 mg/kg, PO 5 mg/kg, cassette, mean of animals, read-out: AUC(0-∞)): 1410 ng·h/mL; Cmax ([1]; male, KM, mouse, plasma, po, 5 mg/kg, PO 5 mg/kg, cassette, mean of animals, read-out: Cmax): 87.6 ng/mL; Tmax ([1]; male, KM, mouse, plasma, po, 5 mg/kg, PO 5 mg/kg, cassette, mean of animals, read-out: Tmax): 0.875 h; Cmax ([1]; male, KM, mouse, plasma, po, 5 mg/kg, PO 5 mg/kg, cassette, summary table, read-out: Cmax): 87.6 ng/mL; half-life ([1]; male, KM, mouse, plasma, po, 5 mg/kg, PO 5 mg/kg, cassette, summary table, read-out: T1/2 (converted)): 11.4 h; Tmax ([1]; male, KM, mouse, plasma, po, 5 mg/kg, PO 5 mg/kg, cassette, summary table, read-out: Tmax): 0.875 h; concentration at 0.083 h [1, 5]: 55.3 ng/mL and 100 nM; concentration at 0.25 h [1, 5]: 110 nM and 60.1 ng/mL; concentration at 0.5 h [1, 5]: 90 nM and 50.3 ng/mL; concentration at 1 h [1, 5]: 70 nM and 39.4 ng/mL; concentration at 3 h [1, 5]: 60 nM and 31 ng/mL; concentration at 5 h [1, 5]: 50 nM and 24.4 ng/mL; concentration at 8 h [1, 5]: 40 nM and 21.8 ng/mL; concentration at 24 h [1, 5]: 10 nM and 7.15 ng/mL; AUC(0-t) [1, 6]: 478 ng·h/mL; MRT last [1, 6]: 7.49 h; MRT inf [1, 6]: 12.9 h; Vd/F [1, 6]: 24.4 L/kg; concentration at 0.033 h ([1]; male, KM, mouse, plasma, IV 1 mg/kg, cassette, 0.033 h): 278 ng/mL and 520 nM; concentration at 0.167 h ([1]; male, KM, mouse, plasma, IV 1 mg/kg, cassette, 0.167 h): 270 nM and 148 ng/mL; concentration at 0.5 h [1, 7]: 160 nM and 84.6 ng/mL; concentration at 1 h [1, 7]: 170 nM and 89.6 ng/mL; concentration at 3 h [1, 7]: 80 nM and 40.5 ng/mL; concentration at 5 h [1, 7]: 50 nM and 28.3 ng/mL; concentration at 8 h [1, 7]: 40 nM and 21.6 ng/mL; concentration at 24 h [1, 7]: 30 nM and 15.1 ng/mL; C0 [1, 8]: 327 ng/mL; AUC(0-t) [1, 8]: 688 ng·h/mL; MRT last [1, 8]: 6.4 h; MRT inf [1, 8]: 9.25 h; concentration at 0.083 h [1, 9]: 17.3 ng/mL and 30 nM; concentration at 0.25 h [1, 9]: 80 nM and 42.6 ng/mL; concentration at 0.5 h [1, 9]: 120 nM and 65.1 ng/mL; concentration at 1 h [1, 9]: 160 nM and 84.4 ng/mL; concentration at 3 h [1, 9]: 130 nM and 68.4 ng/mL; concentration at 5 h [1, 9]: 120 nM and 63.3 ng/mL; concentration at 8 h [1, 9]: 110 nM and 60.5 ng/mL; concentration at 24 h [1, 9]: 40 nM and 22.2 ng/mL; AUC(0-t) [1, 10]: 945 ng·h/mL; MRT last [1, 10]: 6.82 h; MRT inf [1, 10]: 15.7 h; Vd/F [1, 10]: 58.1 L/kg; MIC99 (M. bovis BCG; Mycobacterium tuberculosis variant bovis BCG, BCG, read-out: BCG MIC99): 14 µM (≈ 7.6 µg/mL); MIC50 (M. bovis BCG; Mycobacterium tuberculosis variant bovis BCG, BCG, read-out: MIC50 BCG): 15 µM (≈ 8.15 µg/mL); MIC99 (M. bovis BCG; Mycobacterium tuberculosis variant bovis BCG, BCG, read-out: MIC99 BCG): 14 µM (≈ 7.6 µg/mL); increase in activity against M. bovis BCG compared to BGAz-001 (M. bovis BCG; fold, from MIC99): approximately three- to four-fold increase; BCG pTIC6-fbpA MIC (BCG pTIC6-fbpA): 20 µM; BCG pTIC6-fbpB MIC (BCG pTIC6-fbpB): 28 µM; increase in MIC upon overexpression of FbpB (BCG pTIC6-fbpB): two-fold increase
